Measured values reported in patent US11000033B2, “Ketone or oxime compound, and herbicide” (NISSAN CHEMICAL CORPORATION, priority 2014, dated 2021).

How the values were obtained:
Format in all cases: in vivo
[1] = tested on: Scirpus juncoides; assay: Test Example 1: herbicidal activity, application before weed generation in submerged conditions (symbol B); settings: application herbicide amount 320 g/ha
Outline: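 Paddy pre-emergence test. Formulated emulsion, water-diluted to a predetermined rate, is applied to floodwater on sowing day; rice transplanted at 2.5 leaves. Effect read at 3 weeks on a 0–5 herbicidal-ratio scale.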

[2] = tested on: Setaria viridis; assay: Test Example 4: herbicidal effect by soil treatment (symbol G); settings: for G: Setaria viridis, herbicidal effect grade: 320 g/ha; for Herbicidal effect grade, G: Setaria viridis: application herbicide amount 320 g/ha
Outline: (§1)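 Seeds were sown in sterilized diluvial soil, covered with about 1.5 cm of soil, and the soil surface was sprayed with a water-diluted emulsion of the compound at a predetermined rate. Plants grew in a greenhouse at 25° C. to 30° C.; effects were scored visually 3 weeks after application.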

[3] = tested on: Avena fatua; assay: Test Example 4: herbicidal effect by soil treatment (symbol I); settings: for I: Avena fatua, herbicidal effect grade: 320 g/ha; for Herbicidal effect grade, I: Avena fatua: application herbicide amount 320 g/ha
Outline: as §1

[4] = tested on: Alopecurus myosuroides; assay: Test Example 4: herbicidal effect by soil treatment (symbol J); settings: for J: Alopecurus myosuroides, herbicidal effect grade: 320 g/ha; for Herbicidal effect grade, J: Alopecurus myosuroides: application herbicide amount 320 g/ha
Outline: as §1

[5] = tested on: Apera spica-venti; assay: Test Example 4: herbicidal effect by soil treatment (symbol L); settings: for L: Apera spica-venti, herbicidal effect grade: 320 g/ha; for Herbicidal effect grade, L: Apera spica-venti: application herbicide amount 320 g/ha
Outline: as §1

[6] = tested on: Abutilon theophrasti; assay: Test Example 4: herbicidal effect by soil treatment (symbol M); settings: for M: Abutilon theophrasti, herbicidal effect grade: 320 g/ha; for Herbicidal effect grade, M: Abutilon theophrasti: application herbicide amount 320 g/ha
Outline: as §1

[7] = tested on: Stellaria media; assay: Test Example 4: herbicidal effect by soil treatment (symbol P); settings: for P: Stellaria media, herbicidal effect grade: 320 g/ha; for Herbicidal effect grade, P: Stellaria media: application herbicide amount 320 g/ha
Outline: as §1

[8] = tested on: Veronica persica; assay: Test Example 4: herbicidal effect by soil treatment (symbol R); settings: for R: Veronica persica, herbicidal effect grade: 320 g/ha; for Herbicidal effect grade, R: Veronica persica: application herbicide amount 320 g/ha
Outline: as §1

[9] = tested on: soybean; assay: Test Example 4: effect on crop by soil treatment (symbol d); settings: for d: soybean, effect grade on crop: 320 g/ha; for Effect on crop grade, d: soybean: application herbicide amount 320 g/ha
Outline: (§2)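 Seeds were sown in spots on sterilized diluvial soil in a plastic box and covered with about 1.5 cm of soil. Plants were then grown in a greenhouse at 25° C. to 30° C.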

[10] = tested on: rice; assay: Test Example 4: effect on crop by soil treatment (symbol b); settings: for b: directly sowed rice plant, effect grade on crop: 320 g/ha; for Effect on crop grade, b: directly sowed rice plant: application herbicide amount 320 g/ha
Outline: as §2

[11] = tested on: wheat; assay: Test Example 4: effect on crop by soil treatment (symbol e); settings: for e: wheat, effect grade on crop: 320 g/ha; for Effect on crop grade, e: wheat: application herbicide amount 320 g/ha
Outline: as §2

[12] = tested on: Digitaria ciliaris; assay: Test Example 5: herbicidal effect by foliage application, plastic box (symbol F); settings: 320 g/ha, 3 weeks after application
Outline: (§3)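 Visual herbicidal score, taken three weeks post-application, of seedlings sprayed on the foliage with water-diluted emulsion at a predetermined amount; plants were 14 days old, greenhouse-raised at 25° C. to 30° C.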

[13] = tested on: Echinochloa crus-galli var. crus-galli; assay: Test Example 5: herbicidal effect by foliage application, plastic box (symbol H); settings: 320 g/ha, 3 weeks after application
Outline: as §3

[14] = tested on: Alopecurus myosuroides; assay: Test Example 5: herbicidal effect by foliage application, plastic box (symbol J); settings: 320 g/ha, 3 weeks after application
Outline: as §3

[15] = tested on: Chenopodium album; assay: Test Example 5: herbicidal effect by foliage application, plastic box (symbol O); settings: 320 g/ha, 3 weeks after application
Outline: as §3

[16] = tested on: rice plant; assay: Test Example 5: effect on crop by foliage application, plastic box (symbol b); settings: 320 g/ha, 3 weeks after application
Outline: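 Diluvial soil, sterilized and boxed (21 × 13 × 7 cm), received spot-sown seed covered by about 1.5 cm soil; plants were then greenhouse-grown at 25–30° C.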

Row | Compound | Herbicidal effect grade, B: Scirpus juncoides [1] | G: Setaria viridis, herbicidal effect grade [2] | I: Avena fatua, herbicidal effect grade [3] | J: Alopecurus myosuroides, herbicidal effect grade [4] | L: Apera spica-venti, herbicidal effect grade [5] | M: Abutilon theophrasti, herbicidal effect grade [6] | P: Stellaria media, herbicidal effect grade [7] | R: Veronica persica, herbicidal effect grade [8] | d: soybean, effect grade on crop [9] | b: directly sowed rice plant, effect grade on crop [10] | e: wheat, effect grade on crop [11] | F: Digitaria ciliaris, herbicidal effect (criteria 0-5) [12] | H: Echinochloa crus-galli var. crus-galli, herbicidal effect (criteria 0-5) [13] | J: Alopecurus myosuroides, herbicidal effect (criteria 0-5) [14] | O: Chenopodium album, herbicidal effect (criteria 0-5) [15] | b: directly sowed rice plant, effect on crop (criteria 0-5) [16] | B (Scirpus juncoides) herbicidal effect grade [1] | Herbicidal effect grade, G: Setaria viridis [2] | Herbicidal effect grade, I: Avena fatua [3] | Herbicidal effect grade, J: Alopecurus myosuroides [4] | further results
1 | COC(=O)c1ccc(CON=C(C)CC2CC(O)=C(c3c(C)cc(C)cc3C)C2=O)cc1 (stereo not shown) [1-118] | 1 (Herbicidal ratio of 5% or higher and lower than 20%) | 2 (Herbicidal ratio of 20% or higher and lower than 40%) | 0 (Herbicidal ratio of 5% or lower (almost no effect)) | 3 (Herbicidal ratio of 40% or higher and lower than 70%) | 3 (Herbicidal ratio of 40% or higher and lower than 70%) | 0 (Herbicidal ratio of 5% or lower (almost no effect)) | 0 (Herbicidal ratio of 5% or lower (almost no effect)) | 0 (Herbicidal ratio of 5% or lower (almost no effect)) | 0 (Herbicidal ratio of 5% or lower (almost no effect)) | 5 (Herbicidal ratio of 90% or more (almost completely withered)) | 0 (Herbicidal ratio of 5% or lower (almost no effect)) | 0 (Herbicidal ratio of 5% or lower (almost no effect)) | 2 (Herbicidal ratio of 20% or higher and lower than 40%) | 4 (Herbicidal ratio of 70% or higher and lower than 90%) | 3 (Herbicidal ratio of 40% or higher and lower than 70%) | 4 (Herbicidal ratio of 70% or higher and lower than 90%) |  |  |  |  | 
2 | CC(CC1CC(O)=C(c2c(C)cc(C)cc2C)C1=O)=NOCc1ccccc1[N+](=O)[O-] (stereo not shown) [1-119] | 0 (Herbicidal ratio of 5% or lower (almost no effect)) | 4 (Herbicidal ratio of 70% or higher and lower than 90%) | 1 (Herbicidal ratio of 5% or higher and lower than 20%) | 4 (Herbicidal ratio of 70% or higher and lower than 90%) | 5 (Herbicidal ratio of 90% or more (almost completely withered)) | 0 (Herbicidal ratio of 5% or lower (almost no effect)) | 0 (Herbicidal ratio of 5% or lower (almost no effect)) | 0 (Herbicidal ratio of 5% or lower (almost no effect)) | 0 (Herbicidal ratio of 5% or lower (almost no effect)) | 5 (Herbicidal ratio of 90% or more (almost completely withered)) | 0 (Herbicidal ratio of 5% or lower (almost no effect)) | 5 (Herbicidal ratio of 90% or more (almost completely withered)) | 5 (Herbicidal ratio of 90% or more (almost completely withered)) | 5 (Herbicidal ratio of 90% or more (almost completely withered)) | 3 (Herbicidal ratio of 40% or higher and lower than 70%) | 5 (Herbicidal ratio of 90% or more (almost completely withered)) |  |  |  |  | 
3 | CON=C(CC1CC(O)=C(c2c(C)cc(-n3cc(Cl)cn3)cc2C)C1=O)C1CC1 (stereo not shown) [9-007] |  |  |  |  |  |  |  |  |  |  |  |  |  |  |  |  | 4 (Herbicidal ratio of 70% or higher and lower than 90%) | 5 (Herbicidal ratio of 90% or more (almost completely withered)) | 3 (Herbicidal ratio of 40% or higher and lower than 70%) | 5 (Herbicidal ratio of 90% or more (almost completely withered)) | Herbicidal effect grade, L: Apera spica-venti [5]: 5 (Herbicidal ratio of 90% or more (almost completely withered)); Herbicidal effect grade, M: Abutilon theophrasti [6]: 0 (Herbicidal ratio of 5% or lower (almost no effect)); Herbicidal effect grade, P: Stellaria media [7]: 0 (Herbicidal ratio of 5% or lower (almost no effect)); Herbicidal effect grade, R: Veronica persica [8]: 0 (Herbicidal ratio of 5% or lower (almost no effect)); Effect on crop grade, d: soybean [9]: 0 (Herbicidal ratio of 5% or lower (almost no effect)); Effect on crop grade, b: directly sowed rice plant [10]: 5 (Herbicidal ratio of 90% or more (almost completely withered)); Effect on crop grade, e: wheat [11]: 0 (Herbicidal ratio of 5% or lower (almost no effect)); F: Digitaria ciliaris, herbicidal effect grade [12]: 5 (Herbicidal ratio of 90% or more (almost completely withered)); H: Echinochloa crus-galli var. crus-galli, herbicidal effect grade [13]: 5 (Herbicidal ratio of 90% or more (almost completely withered)); J: Alopecurus myosuroides, herbicidal effect grade [14]: 5 (Herbicidal ratio of 90% or more (almost completely withered)); O: Chenopodium album, herbicidal effect grade [15]: 3 (Herbicidal ratio of 40% or higher and lower than 70%); b: directly sowed rice plant, effect on crop grade [16]: 5 (Herbicidal ratio of 90% or more (almost completely withered))
4 | CC#Cc1cc(C)c(C2=C(O)CC(CC(=NOCC(F)(F)F)C(C)C)C2=O)c(C)c1 (stereo not shown) [9-015] |  |  |  |  |  |  |  |  |  |  |  |  |  |  |  |  | 5 (Herbicidal ratio of 90% or more (almost completely withered)) | 5 (Herbicidal ratio of 90% or more (almost completely withered)) | 1 (Herbicidal ratio of 5% or higher and lower than 20%) | 5 (Herbicidal ratio of 90% or more (almost completely withered)) | Herbicidal effect grade, L: Apera spica-venti [5]: 5 (Herbicidal ratio of 90% or more (almost completely withered)); Herbicidal effect grade, M: Abutilon theophrasti [6]: 0 (Herbicidal ratio of 5% or lower (almost no effect)); Herbicidal effect grade, P: Stellaria media [7]: 0 (Herbicidal ratio of 5% or lower (almost no effect)); Herbicidal effect grade, R: Veronica persica [8]: 0 (Herbicidal ratio of 5% or lower (almost no effect)); Effect on crop grade, d: soybean [9]: 0 (Herbicidal ratio of 5% or lower (almost no effect)); Effect on crop grade, b: directly sowed rice plant [10]: 5 (Herbicidal ratio of 90% or more (almost completely withered)); Effect on crop grade, e: wheat [11]: 3 (Herbicidal ratio of 40% or higher and lower than 70%); F: Digitaria ciliaris, herbicidal effect grade [12]: 5 (Herbicidal ratio of 90% or more (almost completely withered)); H: Echinochloa crus-galli var. crus-galli, herbicidal effect grade [13]: 5 (Herbicidal ratio of 90% or more (almost completely withered)); J: Alopecurus myosuroides, herbicidal effect grade [14]: 5 (Herbicidal ratio of 90% or more (almost completely withered)); O: Chenopodium album, herbicidal effect grade [15]: 3 (Herbicidal ratio of 40% or higher and lower than 70%); b: directly sowed rice plant, effect on crop grade [16]: 5 (Herbicidal ratio of 90% or more (almost completely withered))
